The values below come from patent US11161817B2, “Quinoline derivative and use thereof as tyrosine kinase inhibitor” (CHONGQING PHARMACEUTICAL INDUSTRIAL RESEARCH INSTITUTE CO. …, priority 2017, dated 2021).

In one data set the target is FGFR4(h) (Homo sapiens, UniProt P22455). Put plainly: In vitro kinase activity test, FGFR4(h).
The next data set addresses c-Met (Homo sapiens, UniProt P08581). Nature of the data set: In vitro kinase activity test, c-Met.
The next data set deals with FGFR1(h) (Homo sapiens, UniProt P11362). Nature of the data set: In vitro kinase activity test, FGFR1(h).
A further data set has as its target Abl(h) (Homo sapiens, UniProt P00519). Put plainly: In vitro kinase activity test, Abl(h).
Data set [1] in a line: Pharmacokinetic evaluation in rats, intravenous and oral administration. It is filed as in vivo, SD rats. As to conditions: for time to peak concentration / AUC(0-t) / bioavailability / Cmax: male SD rats, intragastric, 5 mg/kg, single; for AUC(0-t) / bioavailability / Cmax: rat, plasma, po; for Cmax: read-out: peak concentration (Cmax). On the procedure: Experimental objective: evaluation of the oral absorption in animals of the product of Embodiment 1 by intravenous and oral administration in rats
Experimental materials: male, SD rats, EDTA-K2
0.5 mg/mL of the test compound suspended in 0.5% Methocel/0.2% Tween 80 was administered intragastrically to male SD rats (overnight fasting, 7-11 week-age) at a dose of 5 mg/kg. About 30 μL blood was collected from the jugular or caudal vein of each animal in the two groups at 0.25, 0.5, 1.0, 2.0, 4.0, 8.0, and 24 hours after administration, added into anticoagulated tubes containing EDTA-K2, and the mixture was centrifuged to obtain the plasma. LC-MS/MS method was used to determine the drug concentration in blood, and WinNonlin™ Version 6.3 (Pharsight, Mountain View, Calif.) pharmacokinetic software was used to calculate the relevant pharmacokinetic parameters by non-compartment model logarithmic trapezoidal method.

Assay in data set [2]: as above
The data set is classed as in vivo, SD rats. The following applies: for Vd / AUC(0-t) / half-life / clearance: rat, plasma, male SD rats, intravenous injection, 1.0 mg/kg, single; for Vd: read-out: apparent volume of distribution at steady state (Vdss); for AUC(0-t): read-out: area under the plasma concentration-time curve (AUC0-last); for half-life: read-out: elimination half-life (T1/2) (converted); for clearance: read-out: plasma clearance (CL).

Data set [3] is described as follows: Pharmacokinetic evaluation in mice, intravenous and oral administration. It is filed as in vivo. The following applies: male Balb/c nude mice, single. On the procedure: Experimental objective: evaluation of the oral absorption in animals of the product of Embodiment 1 by intravenous and oral administration in mice
Experimental materials: Balb/c nude mice, EDTA-K2
Experimental procedure: 0.5 mg/mL 5% DMSO/95% (10% HP-β-CD) clear solution of the product of Embodiment 1 was injected intravenously into male Balb/c nude mice (overnight fasting, 7-9 week-age) via caudal vein at a dose of 1 mg/kg. 0.5 mg/mL test compound suspended in 0.5% Methocel/0.2% Tween 80 was administered intragastrically to male Balb/c nude mice (overnight fasting, 7-9 week-age) at a dose of 5 mg/kg. About 30 μL blood was collected from the jugular or caudal vein of each animal in the two groups at 0.25, 0.5, 1.0, 2.0, 4.0, 8.0 and 24 hours after administration, added into anticoagulated tubes containing EDTA-K2, and the mixture was centrifuged to obtain the plasma. LC-MS/MS method was used to determine the drug concentration in blood, and WinNonlin™ Version 6.3 (Pharsight, Mountain View, Calif.) pharmacokinetic software was used to calculate the relevant pharmacokinetic parameters by non-compartment model logarithmic trapezoidal method.

The target in the next data set is TNIK(h) (Homo sapiens, UniProt Q9UKE5). Nature of the data set: In vitro kinase activity test, TNIK(h).
In another data set the target is PDGFRβ(h) (Homo sapiens, UniProt P09619). Nature of the data set: In vitro kinase activity test, PDGFRβ(h).
For a further data set, the target named is T1, Aurora-A(h) (Homo sapiens, UniProt O14965).
T1 sequence (O14965 1-403): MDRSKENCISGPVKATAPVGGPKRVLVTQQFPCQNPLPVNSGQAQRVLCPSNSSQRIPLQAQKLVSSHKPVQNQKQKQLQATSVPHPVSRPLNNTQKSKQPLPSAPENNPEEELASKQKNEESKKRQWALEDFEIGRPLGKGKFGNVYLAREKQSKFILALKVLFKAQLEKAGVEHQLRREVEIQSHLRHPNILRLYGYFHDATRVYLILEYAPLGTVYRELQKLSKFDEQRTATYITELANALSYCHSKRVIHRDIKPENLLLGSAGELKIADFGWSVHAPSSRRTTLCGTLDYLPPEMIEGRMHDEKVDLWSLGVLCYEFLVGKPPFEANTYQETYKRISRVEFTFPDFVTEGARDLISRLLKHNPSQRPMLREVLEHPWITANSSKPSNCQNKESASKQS
Nature of the data set: In vitro kinase activity test, Aurora-A(h). As to conditions: read-out: Aurora-A(h) IC50; Table 2; ATP 10 μM.

The next data set has as its target KDR(h) (Homo sapiens, UniProt P35968). Nature of the data set: In vitro kinase activity test, KDR(h). The following applies: read-out: KDR(h) IC50; Table 2; ATP 10 μM.
Another data set addresses FGFR2(h) (Homo sapiens, UniProt P21802). Put plainly: In vitro kinase activity test, FGFR2(h).
A further data set deals with Lck(h) (Homo sapiens, UniProt P06239). Nature of the data set: In vitro kinase activity test, Lck(h).
Another data set concerns the target MINK(h) (Homo sapiens, UniProt Q8N4C8). Put plainly: In vitro kinase activity test, MINK(h).
The target in the next data set is Flt1(h) (Homo sapiens, UniProt P17948). Nature of the data set: In vitro kinase activity test, Flt1(h).
The target in the next data set is Flt4(h) (Homo sapiens, UniProt P35916). Nature of the data set: In vitro kinase activity test, Flt4(h).
The target of a further data set is cKit(V560G)(h) (Homo sapiens, UniProt P10721, V560G). Put plainly: In vitro kinase activity test, cKit(V560G)(h).
The target of a further data set is FGFR3(h) (Homo sapiens, UniProt P22607). Put plainly: In vitro kinase activity test, FGFR3(h).
The next data set has as its target cKit(h) (Homo sapiens, UniProt P10721). Nature of the data set: In vitro kinase activity test, cKit(h).
Setting [4] is: c-Met kinase activity IC50, Table 3, value 45.6 is from the second test (Note 1).
The mark [5] stands for this setting: rats, intravenous administration.

Structures are written as SMILES. Read-outs that look alike come from different tables or passages of the source.

Chain of FGFR1(h) (P11362 22-822): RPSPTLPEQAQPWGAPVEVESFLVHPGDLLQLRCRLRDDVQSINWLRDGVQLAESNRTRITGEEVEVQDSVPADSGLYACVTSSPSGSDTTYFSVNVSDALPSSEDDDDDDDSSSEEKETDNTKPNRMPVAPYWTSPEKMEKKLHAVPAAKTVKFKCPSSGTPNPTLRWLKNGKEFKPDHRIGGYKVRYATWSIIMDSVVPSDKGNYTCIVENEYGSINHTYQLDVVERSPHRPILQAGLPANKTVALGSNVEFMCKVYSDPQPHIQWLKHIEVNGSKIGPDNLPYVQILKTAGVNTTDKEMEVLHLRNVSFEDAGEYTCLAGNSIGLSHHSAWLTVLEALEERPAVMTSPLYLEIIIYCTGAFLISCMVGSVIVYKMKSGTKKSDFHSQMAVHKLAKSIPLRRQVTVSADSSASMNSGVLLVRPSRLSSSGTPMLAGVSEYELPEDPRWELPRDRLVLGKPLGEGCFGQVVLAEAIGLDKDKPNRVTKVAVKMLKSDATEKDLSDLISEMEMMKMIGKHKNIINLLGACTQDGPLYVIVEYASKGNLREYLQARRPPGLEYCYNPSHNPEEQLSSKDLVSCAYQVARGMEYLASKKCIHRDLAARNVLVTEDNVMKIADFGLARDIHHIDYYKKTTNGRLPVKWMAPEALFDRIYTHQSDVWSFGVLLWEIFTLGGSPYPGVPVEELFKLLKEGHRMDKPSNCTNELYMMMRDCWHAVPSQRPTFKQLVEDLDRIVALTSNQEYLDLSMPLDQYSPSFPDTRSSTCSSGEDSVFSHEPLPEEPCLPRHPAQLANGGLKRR
Chain of Abl(h) (P00519 whole entry): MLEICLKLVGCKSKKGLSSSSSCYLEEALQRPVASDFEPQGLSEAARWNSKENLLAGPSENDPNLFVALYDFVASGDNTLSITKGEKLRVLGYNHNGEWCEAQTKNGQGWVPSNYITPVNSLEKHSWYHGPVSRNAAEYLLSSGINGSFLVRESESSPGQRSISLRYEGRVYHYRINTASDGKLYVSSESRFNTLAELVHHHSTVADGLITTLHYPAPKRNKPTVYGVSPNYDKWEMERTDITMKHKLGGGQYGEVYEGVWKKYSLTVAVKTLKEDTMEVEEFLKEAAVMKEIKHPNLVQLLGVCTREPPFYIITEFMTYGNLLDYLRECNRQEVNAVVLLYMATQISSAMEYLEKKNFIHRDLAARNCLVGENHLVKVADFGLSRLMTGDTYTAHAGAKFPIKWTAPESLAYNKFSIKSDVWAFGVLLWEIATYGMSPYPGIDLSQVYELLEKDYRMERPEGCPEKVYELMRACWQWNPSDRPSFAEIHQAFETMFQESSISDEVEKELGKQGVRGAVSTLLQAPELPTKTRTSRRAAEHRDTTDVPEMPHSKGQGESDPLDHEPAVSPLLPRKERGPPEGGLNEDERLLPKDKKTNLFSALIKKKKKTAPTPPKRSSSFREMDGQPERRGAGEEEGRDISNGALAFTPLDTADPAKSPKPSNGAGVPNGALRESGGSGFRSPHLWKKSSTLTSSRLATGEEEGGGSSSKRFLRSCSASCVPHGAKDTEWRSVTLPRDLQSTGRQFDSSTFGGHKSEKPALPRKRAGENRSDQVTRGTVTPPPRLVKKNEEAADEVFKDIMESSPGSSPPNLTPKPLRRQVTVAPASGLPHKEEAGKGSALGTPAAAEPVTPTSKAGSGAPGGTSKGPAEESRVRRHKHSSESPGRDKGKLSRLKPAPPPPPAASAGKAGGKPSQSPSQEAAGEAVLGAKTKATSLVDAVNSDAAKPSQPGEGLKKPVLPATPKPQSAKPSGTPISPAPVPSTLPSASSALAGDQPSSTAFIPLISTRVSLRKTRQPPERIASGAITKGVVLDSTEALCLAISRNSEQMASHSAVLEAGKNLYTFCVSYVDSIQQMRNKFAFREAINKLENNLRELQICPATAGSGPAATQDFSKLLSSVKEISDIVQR
Chain of c-Met (P08581 25-1390): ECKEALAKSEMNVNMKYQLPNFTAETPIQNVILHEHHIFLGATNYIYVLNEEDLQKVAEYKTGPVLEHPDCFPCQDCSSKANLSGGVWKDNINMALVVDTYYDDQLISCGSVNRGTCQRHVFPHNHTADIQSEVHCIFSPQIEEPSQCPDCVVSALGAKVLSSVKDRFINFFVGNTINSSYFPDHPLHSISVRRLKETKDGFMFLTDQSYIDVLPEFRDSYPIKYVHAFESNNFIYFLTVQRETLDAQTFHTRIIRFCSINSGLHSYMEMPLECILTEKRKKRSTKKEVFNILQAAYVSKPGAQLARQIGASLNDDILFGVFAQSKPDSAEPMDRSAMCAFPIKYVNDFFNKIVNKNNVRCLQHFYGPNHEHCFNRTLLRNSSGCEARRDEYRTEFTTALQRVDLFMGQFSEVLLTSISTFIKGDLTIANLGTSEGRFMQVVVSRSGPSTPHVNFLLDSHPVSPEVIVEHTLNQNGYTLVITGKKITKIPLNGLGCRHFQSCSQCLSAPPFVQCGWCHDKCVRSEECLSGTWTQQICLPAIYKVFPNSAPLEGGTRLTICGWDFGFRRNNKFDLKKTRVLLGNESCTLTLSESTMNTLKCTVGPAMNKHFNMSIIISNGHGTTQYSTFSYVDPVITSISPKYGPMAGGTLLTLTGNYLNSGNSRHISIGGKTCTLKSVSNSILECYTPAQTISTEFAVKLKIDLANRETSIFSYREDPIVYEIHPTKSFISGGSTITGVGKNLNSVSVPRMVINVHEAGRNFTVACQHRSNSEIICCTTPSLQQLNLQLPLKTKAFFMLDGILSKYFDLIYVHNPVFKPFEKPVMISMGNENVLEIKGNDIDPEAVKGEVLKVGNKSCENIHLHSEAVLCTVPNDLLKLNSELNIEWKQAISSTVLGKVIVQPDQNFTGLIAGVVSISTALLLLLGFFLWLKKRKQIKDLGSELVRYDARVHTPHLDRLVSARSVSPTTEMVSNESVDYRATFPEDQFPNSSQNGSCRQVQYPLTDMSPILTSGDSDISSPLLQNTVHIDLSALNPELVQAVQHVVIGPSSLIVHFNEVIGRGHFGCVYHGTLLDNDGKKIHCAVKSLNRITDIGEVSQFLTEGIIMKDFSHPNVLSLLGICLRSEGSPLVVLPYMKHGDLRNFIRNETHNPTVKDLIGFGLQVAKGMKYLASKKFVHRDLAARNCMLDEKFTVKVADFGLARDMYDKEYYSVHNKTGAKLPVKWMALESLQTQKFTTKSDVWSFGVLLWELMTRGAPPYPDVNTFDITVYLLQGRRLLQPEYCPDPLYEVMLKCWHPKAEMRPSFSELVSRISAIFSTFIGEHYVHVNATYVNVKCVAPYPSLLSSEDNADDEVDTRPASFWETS
Chain of FGFR4(h) (P22455 22-802): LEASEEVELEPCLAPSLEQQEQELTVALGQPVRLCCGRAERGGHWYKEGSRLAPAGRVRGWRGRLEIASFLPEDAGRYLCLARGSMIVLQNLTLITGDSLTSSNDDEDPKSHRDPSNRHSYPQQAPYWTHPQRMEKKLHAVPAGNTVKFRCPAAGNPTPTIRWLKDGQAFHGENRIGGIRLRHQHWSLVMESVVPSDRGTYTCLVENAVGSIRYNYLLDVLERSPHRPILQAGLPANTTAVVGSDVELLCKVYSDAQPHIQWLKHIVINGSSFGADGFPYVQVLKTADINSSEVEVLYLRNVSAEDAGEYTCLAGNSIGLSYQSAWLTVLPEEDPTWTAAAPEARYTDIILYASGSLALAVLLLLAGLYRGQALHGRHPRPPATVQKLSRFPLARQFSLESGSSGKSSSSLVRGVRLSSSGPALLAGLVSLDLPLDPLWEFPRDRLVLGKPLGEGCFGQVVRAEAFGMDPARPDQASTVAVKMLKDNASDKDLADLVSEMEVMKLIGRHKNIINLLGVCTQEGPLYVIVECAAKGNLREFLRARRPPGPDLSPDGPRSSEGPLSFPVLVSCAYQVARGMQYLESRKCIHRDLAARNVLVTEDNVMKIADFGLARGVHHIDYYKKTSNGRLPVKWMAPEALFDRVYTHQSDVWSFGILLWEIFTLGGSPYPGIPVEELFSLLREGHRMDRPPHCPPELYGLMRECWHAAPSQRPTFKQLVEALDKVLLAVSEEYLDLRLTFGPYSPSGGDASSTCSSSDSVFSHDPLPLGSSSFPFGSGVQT
Chain of Lck(h) (P06239 whole entry): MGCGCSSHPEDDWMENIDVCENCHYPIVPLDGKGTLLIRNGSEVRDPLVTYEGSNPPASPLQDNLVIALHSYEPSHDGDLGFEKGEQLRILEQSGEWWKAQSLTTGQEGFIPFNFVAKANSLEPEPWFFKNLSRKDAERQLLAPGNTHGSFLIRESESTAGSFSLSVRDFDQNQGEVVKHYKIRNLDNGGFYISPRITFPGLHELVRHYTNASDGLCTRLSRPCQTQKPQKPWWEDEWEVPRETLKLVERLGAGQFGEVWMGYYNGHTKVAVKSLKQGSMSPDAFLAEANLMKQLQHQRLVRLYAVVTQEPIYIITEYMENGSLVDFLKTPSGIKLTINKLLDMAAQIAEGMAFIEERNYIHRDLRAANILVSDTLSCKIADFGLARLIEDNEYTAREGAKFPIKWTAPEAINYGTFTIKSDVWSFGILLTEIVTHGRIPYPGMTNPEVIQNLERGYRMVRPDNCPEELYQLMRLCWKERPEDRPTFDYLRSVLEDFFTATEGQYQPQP
Protocol for Abl(h): (§1) Protein kinase with a corresponding enzyme concentration of X (shown in table 1), peptide substrate with a concentration of Y, ATP with a specific concentration, 8 mM MOPS (pH 7.0), and 10 mM MgCl2 were added. The detection plate was P30 filtermat, and the reaction was performed at room temperature for T minutes, and the reaction system was 10 μL.
(§2) The reaction was terminated by adding 0.5% phosphoric acid to the kinase reaction solution, and the plate was read by an Envision instrument.
(§3) The data were converted into phosphorylation rate and inhibition rate, and subjected to parameter curve-fitting (GraphPad Software) to obtain IC50 data of the compounds.
Protocol for Aurora-A(h): as §1, §2, §3
Protocol for FGFR1(h): as §1, §2, §3
Protocol for FGFR2(h): as §1, §2, §3
Protocol for FGFR3(h): as §1, §2, §3
Protocol for FGFR4(h): as §1, §2, §3
Protocol for Flt1(h): as §1, §2, §3
Protocol for Flt4(h): as §1, §2, §3
Protocol for KDR(h): as §1, §2, §3
Protocol for Lck(h): as §1, §2, §3
Protocol for MINK(h): as §1, §2, §3
Protocol for PDGFRβ(h): as §1, §2, §3
Protocol for TNIK(h): as §1, §2, §3
Protocol for c-Met: as §1, §2, §3
Protocol for cKit(V560G)(h): as §1, §2, §3
Protocol for cKit(h): as §1, §2, §3

For orientation: IC50 means the concentration that gives 50% inhibition. For the compound `COc1cc2nccc(Oc3cc(Cl)c(NC(=O)NC4CC4)cc3F)c2cc1C(N)=O` [Comparative Compound 5], the IC50 at FGFR4(h) came out at 137 nM; at c-Met (setting [4]), 32 nM; against FGFR1(h), 89 nM; at Abl(h), 207 nM.
Take `COc1cc2nccc(Oc3ccc(NC(=O)NC4CC4)c(F)c3)c2cc1C(N)=O` [Comparative Compound 6]: the IC50 at FGFR4(h) was 4560 nM; against c-Met (setting [4]) it was 282 nM; on FGFR1(h), 1740 nM; at Abl(h), 2210 nM.
On to `COc1cc2nccc(Oc3cc(F)c(NC(=O)NC4CC4)c(Cl)c3)c2cc1C(N)=O` [Comparative Compound 7], for which the IC50 on FGFR4(h) was 1110 nM; on c-Met (setting [4]), greater than 10000 nM; at FGFR1(h), 54 nM.
Take `COc1cc2nccc(Oc3ccc(NC(=O)NC4CC4)c(Cl)c3F)c2cc1C(N)=O` [Embodiment 1]: the “time to peak concentration” value in [1] is 0.375 h; in [3] (intragastric, 5 mg/kg), 0.5 h. The AUC(0-t) was determined as 71.1 µM·h in data set [1]; 23.4 µM·h in data set [2]; 24.9 µM·h in data set [3] (mouse, plasma, po, intragastric, 5 mg/kg, read-out: AUC0-last); 3.21 µM·h in [3] (mouse, plasma, intravenous injection, 1.0 mg/kg, read-out: area under the plasma concentration-time curve (AUC0-last)). Moreover, the bioavailability is 60.8% in [1] and 144% in data set [3] (mouse, plasma, po, intragastric, 5 mg/kg). For the same compound, the Cmax in data set [1] amounted to 19.6 µM; in data set [3] (mouse, plasma, po, intragastric, 5 mg/kg, read-out: peak concentration (Cmax)), 9.83 µM. Moreover, the “AUC0-last increased, compared with Comparative Compound 1” value in data set [1] (rats, oral absorption) is reported as 27%; in [2] (setting [5]) it was 55%. The Vd in data set [2] was determined as 0.259 L/kg; in [3] (mouse, plasma, intravenous injection, 1.0 mg/kg, read-out: apparent volume of distribution at steady state (Vdss)), 1.48 L/kg. Besides, the half-life is 2.64 h in data set [2] and 2.68 h in [3] (mouse, plasma, intravenous injection, 1.0 mg/kg, read-out: elimination half-life (T1/2) (converted)). For the same compound, the clearance in data set [2] turned out to be 1.6 mL/min/kg; in [3] (mouse, plasma, intravenous injection, 1.0 mg/kg, read-out: plasma clearance (CL)), 11 mL/min/kg. Moreover, the “plasma clearance reduced, compared with Comparative Compound 1” value in data set [2] (setting [5]) is on record as roughly 38%.
On to `COc1cc2nccc(Oc3ccc(NC(=S)NC4CC4)c(Cl)c3F)c2cc1C(N)=O` [Comparative Compound 2], for which the IC50 on TNIK(h) (read-out: TNIK(h) IC50, Table 2, ATP 10 μM) was found to be 118 nM; at PDGFRβ(h) (read-out: PDGFRβ(h) IC50, Table 2, ATP 10 μM) it was 31 nM; on FGFR1(h) (read-out: FGFR1(h) IC50, Table 2, ATP 5 μM), 69 nM; on Aurora-A(h), 262 nM; at KDR(h), 7 nM; against FGFR2(h) it was 15 nM. For the same compound, the IC50 on Lck(h) (read-out: Lck(h) IC50, Table 2, ATP 10 μM) turned out to be 252 nM; on MINK(h) (read-out: MINK(h) IC50, Table 2, ATP 10 μM) it was 55 nM; on Flt1(h) (read-out: Flt1(h) IC50, Table 2, ATP 10 μM), 31 nM; on Flt4(h) it was 8 nM.
In the case of `COc1cc2nccc(Oc3ccc(NC(=O)NC4CC4)c(Cl)c3)c2cc1C(N)=O` [Comparative Compound 1, Lovatinib], the IC50 came out at 1120 nM against FGFR4(h); 91 nM against TNIK(h); 596 nM at cKit(V560G)(h); 275 nM at PDGFRβ(h); 598 nM against c-Met (c-Met IC50, Table 2, ATP 10 μM); 76.6 nM at FGFR1(h). The IC50 stood at 132 nM on FGFR3(h); 14 nM against FGFR2(h); 69 nM at Lck(h); 359 nM against MINK(h); 13 nM against Flt1(h); 3 nM on Flt4(h). This compound also registered an IC50 at cKit(h) of 78 nM. Moreover, the “time to peak concentration” value in [1] is 1.25 h. The AUC(0-t) in data set [1] turned out to be 44.5 µM·h; in data set [2], 15.1 µM·h. In data set [1], the bioavailability was determined as 58.7%. Further, in [1], the Cmax came out at 10.1 µM. Moreover, the Vd in data set [2] turned out to be 0.407 L/kg. For the same compound, the half-life in [2] is 2.53 h. Also, the clearance in data set [2] was found to be 2.6 mL/min/kg.
For `COc1cc2nccc(Oc3ccc(NC(=O)NC4CC4)c(F)c3F)c2cc1C(N)=O` [Comparative Compound 4], the IC50 against FGFR4(h) came to 108 nM; against c-Met (setting [4]), 79.8 nM; at FGFR1(h) it was 31 nM; against Abl(h) it was 292 nM.
Regarding `COc1cc2nccc(Oc3cc(F)c(NC(=O)NC4CC4)cc3F)c2cc1C(N)=O` [Comparative Compound 3], the IC50 at FGFR4(h) was 509 nM; at c-Met (setting [4]) it was greater than 10000 nM; at FGFR1(h) it was 160 nM; on Abl(h), 817 nM.
